For one experiment, the target named is T1, PI3Kα(H1047R) (Homo sapiens, UniProt P42336, H1047R).
T1 construct: purchased Invitrogen or Millipore
As to the kind of experiment: KinaseGLO luminescent PI3-kinase assay, mutant PI3Kα(H1047R). Format: biochemical. On the procedure:
Compound Preparation: KinaseGLO assay: 30× stocks of inhibitors were prepared in DMSO. A 10 mM master stock was prepared and all other stocks were generated by serial dilution of this master stock in DMSO. The final concentration of DMSO in the kinase reaction was 3.3% (v/v).
PI3-Kinase Assay: The KinaseGLO® Luminescent Kinase Assay (Promega) is a luciferin-luciferase based luminescent assay that utilizes a proprietary thermostable luciferase to quantify the ATP remaining in a solution after a kinase reaction. The luminescent signal generated using KinaseGLO® directly correlates with ATP concentration, and therefore inversely correlates with kinase activity.
PI3K enzyme sample was thawed and diluted to 100 ng/μL in enzyme dilution buffer (50 mM HEPES, pH7.5, 3.0 mM MgCl2, 1.0 mM EGTA) and stored on ice. PI3Kα enzyme was diluted to a final concentration of 1 ng/μL in reaction buffer (for PI3Kα; 50 mM HEPES, pH7.5, 100 mM NaCl, 2.0 mM DTT, 3.0 mM MgCl2, 1.0 mM EGTA, 10 μM ATP) and gently mixed. 25 μL of this kinase reaction was then aliquoted into test wells in a Microfluor2 white 96-well plate (Thermo Scientific). As a preincubation step, 1 μl of 30× compound dilutions was added to the appropriate test wells to generate a ten point dose-response ranging from 0.0 μM-10 μM inhibitor. […] Luminescent signal was detected using a SpectraMax M5 (Molecular Devices). Maximal luminescence (no PI3K activity/maximal PI3K inhibition) was determined from reaction buffer plus SC-PI substrate only controls. The minimal signal (maximal PI3K activity) was determined by the 0.0 μM compound (DMSO only) control. IC50 values were calculated via non-linear regression using GraphPad Prism data analysis software.
Compounds were assayed against the Class I PI3Kα, PI3Kβ, PI3Kγ, PI3Kδ, PI3Kα(H1047R) and PI3Kα(E545K) in the KinaseGLO assay as described in Example 2, and against the Class IV PI3K mTOR in the radiometric assay. IC50 values (μM) were determined using 8-10 point half-log dose dilutions and calculated via nonlinear regression analysis using Graphpad Prism data analysis software.
(Kinase-Glo measures the ATP left after a reaction by luminescence.)

Experiment [1] deals with p-AKT(S473) in U-87 MG cells. Briefly: In-cell western blot (cytoblot) of AKT phosphorylation, U-87 MG. Format: cell-based. As to conditions: Homo sapiens, read-out: IC50 against the p-AKT(S473) phosphorylation site. On the procedure: (§1) Compound Preparation: Cell-based assays: 1000× stocks of inhibitors were prepared in DMSO. A 10 mM master stock was prepared and all other stocks were generated by serial dilution of the master stock in DMSO. The final concentration of DMSO in cell-based assays was 0.1% (v/v).
(§2) In-cell western blot (cytoblot) mechanistic assay; Measurement of AKT phosphorylation: The in-cell western blot assay is a quantitative 96-well immunocytochemistry assay using fixed cells. Phosphorylated AKT is detected and quantified via either enhanced chemiluminescence (ECL) or near infra-red (LI-COR) methods. Log-phase cells (10,000 A549, RKO or 30,000 U-87 MG) were plated in collagen coated, 96 well plates (Nunc) in 200 μL of growth medium (10% FBS/DMEM) and allowed to attach overnight at 37° C. in 5% CO2 incubator. Black 96 well plates were used for ECL assays. White, clear bottomed 96 well plates were used for LI-COR assays. The following day the growth medium was removed. For experiments using U-87 MG cells and RKO cells, the growth medium was replaced with 200 μL of fresh growth medium containing inhibitors dissolved in DMSO. PI3K inhibitors were dosed using half-log dilutions to generate an eight-point dose-response curve from 0.0 μM-10 μM for EC50 determinations, and the final concentration of DMSO in the test wells was 0.1% (v/v). The inhibitor treated cells were then incubated for 1 hour at 37° C. […]
(§3) After the inhibitor incubation phase (with or without IGF-1 stimulation), the medium was aspirated, the cells washed once with Tris-Buffered Saline (TBS) and then fixed in the wells by addition of 200 μL of cold 3.7% (v/v) formaldehyde diluted in TBS to test wells and incubated for 15 minutes at 4° C. […] The wells were then was washed four times with ice-cold TBS-T. Phospho-AKT luminescent signal was detected after a 1 minute incubation of test wells with 100 μL of ECL reagent using a SpectraMax M5 luminometer. (ii) Near-infrared fluorescence detection (LI-COR): After removal of the methanol, wells were blocked with 200 μL of LI-COR blocking buffer for 1 hour at room temperature. […]

For experiment [2], the system named is p-AKT(S473) in IGF-1-stimulated A549 cells. As to the kind of experiment: In-cell western blot (cytoblot) of AKT phosphorylation, IGF-1-stimulated A549. It counts as cell-based. As to conditions: Homo sapiens, read-out: IC50 against the p-AKT(S473) phosphorylation site. On the procedure: as §1, §2, §3

T1 sequence (P42336 whole entry H1047R): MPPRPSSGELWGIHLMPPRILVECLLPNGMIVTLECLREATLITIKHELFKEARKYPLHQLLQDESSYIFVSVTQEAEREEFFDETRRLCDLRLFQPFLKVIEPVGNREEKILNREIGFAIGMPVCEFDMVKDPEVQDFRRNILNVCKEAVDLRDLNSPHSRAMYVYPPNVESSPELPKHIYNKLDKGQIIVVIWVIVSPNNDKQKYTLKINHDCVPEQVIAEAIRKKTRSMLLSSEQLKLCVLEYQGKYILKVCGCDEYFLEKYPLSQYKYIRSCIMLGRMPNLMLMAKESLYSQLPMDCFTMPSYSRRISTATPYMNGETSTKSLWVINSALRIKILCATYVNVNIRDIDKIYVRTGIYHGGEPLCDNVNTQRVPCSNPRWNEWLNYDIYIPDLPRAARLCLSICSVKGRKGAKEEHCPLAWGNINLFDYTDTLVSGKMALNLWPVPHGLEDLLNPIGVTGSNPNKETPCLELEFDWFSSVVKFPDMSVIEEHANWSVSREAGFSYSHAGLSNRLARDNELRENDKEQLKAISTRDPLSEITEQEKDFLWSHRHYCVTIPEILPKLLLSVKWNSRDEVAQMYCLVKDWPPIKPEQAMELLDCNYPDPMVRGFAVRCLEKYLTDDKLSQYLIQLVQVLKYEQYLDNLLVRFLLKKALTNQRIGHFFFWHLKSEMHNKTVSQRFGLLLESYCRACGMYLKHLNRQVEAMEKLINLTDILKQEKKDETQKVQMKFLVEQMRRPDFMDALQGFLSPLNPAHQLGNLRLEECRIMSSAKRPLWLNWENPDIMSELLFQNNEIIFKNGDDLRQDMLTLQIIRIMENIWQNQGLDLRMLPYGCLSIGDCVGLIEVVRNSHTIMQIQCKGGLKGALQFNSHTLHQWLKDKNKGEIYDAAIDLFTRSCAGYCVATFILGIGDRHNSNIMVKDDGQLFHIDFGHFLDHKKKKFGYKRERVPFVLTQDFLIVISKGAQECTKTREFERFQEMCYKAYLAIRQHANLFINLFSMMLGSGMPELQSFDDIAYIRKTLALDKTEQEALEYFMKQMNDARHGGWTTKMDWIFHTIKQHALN
T1 sequence (P27986 whole entry partner): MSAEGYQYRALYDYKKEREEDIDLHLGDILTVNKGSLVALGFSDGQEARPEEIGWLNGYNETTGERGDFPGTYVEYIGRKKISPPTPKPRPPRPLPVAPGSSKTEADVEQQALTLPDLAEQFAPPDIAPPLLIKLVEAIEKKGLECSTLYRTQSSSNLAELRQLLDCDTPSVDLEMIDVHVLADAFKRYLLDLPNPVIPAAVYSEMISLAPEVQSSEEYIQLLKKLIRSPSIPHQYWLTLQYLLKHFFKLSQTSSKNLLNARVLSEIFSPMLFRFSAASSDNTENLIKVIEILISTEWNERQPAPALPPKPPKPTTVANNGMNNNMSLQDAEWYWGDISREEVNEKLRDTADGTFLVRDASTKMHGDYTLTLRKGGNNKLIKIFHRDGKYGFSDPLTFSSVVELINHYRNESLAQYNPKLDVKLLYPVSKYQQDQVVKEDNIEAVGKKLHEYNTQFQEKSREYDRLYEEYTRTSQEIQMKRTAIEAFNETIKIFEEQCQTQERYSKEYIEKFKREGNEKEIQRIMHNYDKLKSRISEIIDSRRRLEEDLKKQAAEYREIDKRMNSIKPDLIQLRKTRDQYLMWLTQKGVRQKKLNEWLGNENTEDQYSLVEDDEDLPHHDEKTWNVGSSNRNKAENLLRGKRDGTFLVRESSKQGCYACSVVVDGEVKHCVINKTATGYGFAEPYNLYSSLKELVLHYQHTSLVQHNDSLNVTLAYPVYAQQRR

Regarding `CC(C)(C#N)c1ccc(-c2n[nH]c3cnc4ccc(-c5cccnc5)cc4c23)cc1` [Compound 1107, 2-methyl-2-(4-(8-(pyridin-3-yl)-3H-pyrazolo[3,4-c]quinolin-1-yl)phenyl)propanenitrile], the results for the IC50 (against PI3Kα(H1047R); in experiment [1]; in experiment [2]) were 5 to 25 nM, 54 nM and 189 nM, respectively.

As for `CC(C)(C#N)c1ccc(-c2n[nH]c3cnc4ccc(-c5cnc6ccccc6c5)cc4c23)cc1` [Compound 1078, 2-methyl-2-(4-(8-(quinolin-3-yl)-3H-pyrazolo[3,4-c]quinolin-1-yl)phenyl)propanenitrile], the IC50 on PI3Kα(H1047R) is more than 25 nM; in experiment [1], 88 nM; in experiment [2], 43 nM.

Consider `CC(C)(C#N)c1ccc(-c2n[nH]c3cnc4ccc(-c5ccc6ncccc6c5)cc4c23)cc1` [Compound 1110, 2-methyl-2-(4-(8-(quinolin-6-yl)-3H-pyrazolo[3,4-c]quinolin-1-yl)phenyl)propanenitrile], for which the IC50 was more than 25 nM against PI3Kα(H1047R), 81 nM in experiment [1] and 210 nM in experiment [2].

As a reminder, the IC50 is the concentration needed to halve the response being measured.

The record behind these values is patent US20110212053A1, “PHOSPHATIDYLINOSITOL 3 KINASE INHIBITORS” (priority 2008, published 2011).
